These results are taken from ChEMBL document CHEMBL5518220, “The Discovery of 7-Isopropoxy-2-(1-methyl-2-oxabicyclo[2.1.1]hexan-4-yl)-N-(6-methylpyrazolo[1,5-a]pyrimidin-3-yl)imidazo[1,2-a]pyrimidine-6-carboxamide (BIO-7488), a Potent, Selective, and CNS-Penetrant IRAK4 Inhibitor for the Treatment of Ischemic Stroke” (J Med Chem, 2024).

Series [1] addresses T1, Voltage-gated inwardly rectifying potassium channel KCNH2 (Homo sapiens, UniProt Q12809). Briefly: Displacement of [35S]-MK499 from hERG by […]. The series is classed as toxicity.
Series [2] is described as follows: Unbound brain-to-plasma concentration ratio in iv dosed rat measured at 4 to 24 hrs by LC-MS/MS analysis. The class given is ADME, organism-based. Conditions: brain and plasma, time 4-24 hrs, read-out: K(p,uu,brain).
Series [3] is described as follows: Clearance in rat at 1 mg/kg, iv by LC-MS/MS analysis. Conditions: in vivo. The series is classed as ADME, organism-based.
Series [4] can be described thus: Lipophilicity, logD of compound in n-octanol and aqueous buffer at pH 7.4 by RP-HPLC method. The series is classed as physicochemical.
Series [5] in a line: Unbound clearance in rat at 1 mg/kg, iv by LC-MS/MS analysis. The class given is ADME, organism-based. Conditions: in vivo.
For series [6], the target named is T1, Voltage-gated inwardly rectifying potassium channel KCNH2. Nature of the series: Inhibition of hERG by patch clamp method. The series is classed as toxicity.
The target in series [7] is T2, Interleukin-1 receptor-associated kinase 4 (Homo sapiens, UniProt Q9NWZ3).
T2 sequence (Q9NWZ3 whole entry): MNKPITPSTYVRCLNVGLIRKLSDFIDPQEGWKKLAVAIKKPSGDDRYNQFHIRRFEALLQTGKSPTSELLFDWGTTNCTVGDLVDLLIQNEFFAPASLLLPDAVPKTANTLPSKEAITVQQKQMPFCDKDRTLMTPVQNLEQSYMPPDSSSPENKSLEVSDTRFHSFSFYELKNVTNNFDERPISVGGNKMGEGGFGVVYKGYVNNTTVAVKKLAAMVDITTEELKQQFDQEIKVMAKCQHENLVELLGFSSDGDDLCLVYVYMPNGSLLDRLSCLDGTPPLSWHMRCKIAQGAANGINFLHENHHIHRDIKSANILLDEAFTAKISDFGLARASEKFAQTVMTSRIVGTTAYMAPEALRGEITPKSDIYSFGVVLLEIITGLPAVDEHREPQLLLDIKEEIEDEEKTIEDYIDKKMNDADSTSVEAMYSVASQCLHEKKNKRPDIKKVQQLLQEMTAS

T1 sequence (Q12809 whole entry): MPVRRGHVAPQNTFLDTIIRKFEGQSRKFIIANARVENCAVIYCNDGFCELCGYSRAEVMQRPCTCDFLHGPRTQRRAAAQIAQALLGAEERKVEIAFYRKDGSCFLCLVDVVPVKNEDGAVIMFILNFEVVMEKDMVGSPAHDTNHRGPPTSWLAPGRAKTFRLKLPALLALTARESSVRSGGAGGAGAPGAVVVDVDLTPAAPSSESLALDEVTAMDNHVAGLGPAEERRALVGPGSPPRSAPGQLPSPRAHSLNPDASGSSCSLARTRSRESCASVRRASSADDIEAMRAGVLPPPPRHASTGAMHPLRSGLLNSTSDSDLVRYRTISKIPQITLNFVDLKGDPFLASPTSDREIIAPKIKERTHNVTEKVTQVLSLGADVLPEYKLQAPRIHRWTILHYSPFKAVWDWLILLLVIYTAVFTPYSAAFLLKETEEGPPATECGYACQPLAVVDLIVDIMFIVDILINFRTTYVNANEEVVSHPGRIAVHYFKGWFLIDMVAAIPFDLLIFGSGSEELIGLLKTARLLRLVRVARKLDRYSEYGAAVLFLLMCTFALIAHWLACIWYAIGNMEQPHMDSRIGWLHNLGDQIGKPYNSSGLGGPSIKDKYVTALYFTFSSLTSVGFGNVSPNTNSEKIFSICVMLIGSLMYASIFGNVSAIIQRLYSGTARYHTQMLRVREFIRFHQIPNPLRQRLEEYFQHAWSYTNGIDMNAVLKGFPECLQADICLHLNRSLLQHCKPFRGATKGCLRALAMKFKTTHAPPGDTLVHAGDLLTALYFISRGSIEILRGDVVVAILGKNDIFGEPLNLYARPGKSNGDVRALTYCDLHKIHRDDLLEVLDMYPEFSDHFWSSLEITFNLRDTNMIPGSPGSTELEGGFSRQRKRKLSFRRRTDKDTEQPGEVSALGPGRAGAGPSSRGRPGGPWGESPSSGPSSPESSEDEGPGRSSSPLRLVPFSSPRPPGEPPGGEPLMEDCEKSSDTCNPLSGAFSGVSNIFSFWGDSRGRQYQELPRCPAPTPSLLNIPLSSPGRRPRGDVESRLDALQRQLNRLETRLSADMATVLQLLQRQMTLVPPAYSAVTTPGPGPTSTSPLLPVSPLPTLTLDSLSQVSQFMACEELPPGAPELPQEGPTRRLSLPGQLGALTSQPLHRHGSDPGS

Turning to `Cc1cnc2c(NC(=O)c3cn4cc(C56COC(C)(C5)C6)nc4c(F)c3OC(C)C)cnn2c1`, in series [1], the concentration for half-maximal inhibition (IC50) is above 60 µM. In series [2], the Kp uu is 0.7. The compound further yielded a clearance in series [3] of 2.6 mL/min/kg. This compound also showed a logD in series [4] of 2.5. The compound also gave a CL free in series [5] of 28 mL/min/kg.

For the compound `CC(C)Oc1nc2nc(C34COC(C)(C3)C4)cn2cc1C(=O)Nc1cnn2cccnc12`, the Kp uu in series [2] is 0.2. In addition, the IC50 in series [6] worked out at 19.7 µM; in series [7], 0.4 nM. Moreover, the clearance in series [3] amounted to 10 mL/min/kg. In addition, in series [4], the pH-dependent lipophilicity (logD) came out at 2.1. This compound had a CL free in series [5] of 64 mL/min/kg.

As to `CC(C)Oc1cc2nc(C34COC(C)(C3)C4)cn2cc1C(=O)Nc1cnn2cccnc12`, in series [2], the Kp uu is 0.1. In series [6], this compound displayed a half-maximal inhibitory concentration (IC50) above 30 µM. Moreover, the clearance in series [3] is 11 mL/min/kg. In series [4], this compound yielded a pH-dependent lipophilicity (logD) of 2.1. This compound also had a CL free in series [5] of 143 mL/min/kg.
